Results from patent publication US9828350B2, “5,6-dihydro-2H-[1,4]oxazin-3-yl-amine derivatives useful as inhibitors of beta-secretase (BACE)” (Janssen Pharmaceutica NV, priority 2010, dated 2017).

Key:
[1] = tested on: Abeta 1-42; assay: Cellular αLisa assay in SKNBE2 cells, Abeta 1-42; format: cell-based, human; settings: incubated for 18 hours; for IC50: Homo sapiens, SKNBE2, 18 h, read-out: Cellular αLisa assay in SKNBE2 cells Abeta 42 pIC50 (converted)
In short: (§1)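 Human neuroblastoma SKNBE2 cells expressing wild-type hAPP695 were incubated with compound for 18 hours. Secreted Abeta total and Abeta 1-42 in medium were quantified by sandwich αLisa: biotinylated AbN/25 on streptavidin donor beads with Ab4G8 (total) or cAb42/26 (1-42) acceptor beads. Light emission read after 1 hour (ex 650 nm, em 615 nm).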

[2] = target: recombinant BACE1 protein (Homo sapiens, UniProt P56817); assay: Biochemical FRET based assay; settings: recombinant BACE1 1 μg/ml, 120 minutes at room temperature, pH 5.0; for IC50: read-out: Biochemical FRET based assay pIC50 (converted)
Chain of recombinant BACE1 protein (P56817 46-501): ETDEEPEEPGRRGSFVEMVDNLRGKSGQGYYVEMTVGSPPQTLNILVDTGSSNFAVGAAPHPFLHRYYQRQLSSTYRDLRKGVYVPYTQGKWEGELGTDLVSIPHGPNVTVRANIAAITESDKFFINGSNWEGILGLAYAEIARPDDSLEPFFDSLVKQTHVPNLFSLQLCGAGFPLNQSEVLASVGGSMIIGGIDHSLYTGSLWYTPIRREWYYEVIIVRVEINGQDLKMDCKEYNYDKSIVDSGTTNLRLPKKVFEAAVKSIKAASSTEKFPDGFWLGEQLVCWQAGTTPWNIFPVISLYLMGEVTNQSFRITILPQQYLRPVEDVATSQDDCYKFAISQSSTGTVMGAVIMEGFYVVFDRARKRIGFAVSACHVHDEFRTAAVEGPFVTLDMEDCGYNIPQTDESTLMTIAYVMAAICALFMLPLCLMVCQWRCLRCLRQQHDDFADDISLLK
In short: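 Recombinant BACE1 (1 μg/ml final) was incubated 120 minutes at room temperature with […] Mca/Dnp-labelled 13-mer APP Swedish-mutant peptide in 40 mM citrate pH 5.0, 0.04% PEG, 4% DMSO, with or without compound. Cleavage was measured as fluorescence (ex 320/em 405 nm), given as RFU difference between T120 and T0.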

[3] = tested on: Abeta total; assay: Cellular αLisa assay in SKNBE2 cells, Abeta total; format: cell-based, human; settings: incubated for 18 hours; for IC50: Homo sapiens, SKNBE2, 18 h, read-out: Cellular αLisa assay in SKNBE2 cells Abetatotal pIC50 (converted)
In short: as §1

| Cellular αLisa assay in SKNBE2 cells Abeta 42 pIC50 [1] | Biochemical FRET based assay pIC50 [2] | Cellular αLisa assay in SKNBE2 cells Abetatotal pIC50 [3] | IC50 [1] [nM] | IC50 [2] [nM] | IC50 [3] [nM] | Structure (SMILES) |
| --- | --- | --- | --- | --- | --- | --- |
|  |  |  | 36.3 | 91.2 | 35.5 | Cc1cc(Br)cnc1C(=O)Nc1cccc([C@@]2(C3CC3)N=C(N)CO[C@H]2F)c1 [Compound 272] |
| <5 | 5.42 | <5 |  |  |  | NC1=NC(c2cc(-c3cncnc3)ccc2F)(C2CC2)C(F)OC1 (stereo not drawn) [Compound 296] |
|  |  |  | 776 | 3310 | 617 | CCC1(c2cc(-c3cncc(C#N)c3)ccc2F)N=C(N)COC1C(F)(F)F (stereo not drawn) [Compound 310] |
| 6.48 |  | 6.5 |  | 1410 |  | CC1(c2cccc(-c3cncnc3)c2)N=C(N)COC1F (single isomer, unassigned) [Compound 95] |
| <5 | <4.52 | <5 |  |  |  | CC1(c2cccc(NC(=O)c3ccc(Cl)cn3)c2)COC(F)(C(F)(F)F)C(N)=N1 (single isomer, unassigned) [Compound 157] |
|  |  |  | 851 | 355 | 724 | C[C@]1(c2cc(NC(=O)c3cnc(OCC(F)(F)F)cn3)ccc2F)N=C(N)CO[C@]1(F)C(F)(F)F [Compound 318] |
| <5 |  | <5 |  | > 30200 |  | COc1cncc(-c2cccc(C3(C)N=C(N)COC3(F)C(F)(F)F)c2)c1 (single isomer, unassigned) [Compound 142] |
| 5.68 | 4.6 | 5.66 |  |  |  | CC1(c2cccc(NC(=O)c3ccc(C#N)cn3)c2)COCC(N)=N1 (single isomer, unassigned) [Compound 49] |
| 6.08 |  | 6.13 |  | 2000 |  | Cc1ccc(C(=O)Nc2cccc(C3(C)N=C(N)COC3(F)C(F)(F)F)c2)nc1 (single isomer, unassigned) [Compound 194] |
|  |  |  | 41.7 | 49 | 38 | N#Cc1ccc(C(=O)Nc2cccc([C@@]3(C4CC4)N=C(N)CO[C@@H]3F)c2)nc1 [Compound 251] |
|  |  |  | 490 | 2750 | 3090 | CC1(c2cccc(NC(=O)c3ccc(Cl)cn3)c2)COC(F)(C(F)(F)F)C(N)=N1 (single isomer, unassigned) [Compound 15, (R*,R*)—N-{3-[5-amino-6-fluoro-3-methyl-6-(trifluoromethyl)-3,6-dihydro-2H-1,4-oxazin-3-yl]phenyl}-5-chloropyridine-2-carboxamide] |
| 7.02 | 5.69 | 7.1 |  |  |  | COc1cncc(-c2ccc(F)c(C3(C)COCC(N)=N3)c2)c1 (single isomer, unassigned) [Compound 156] |
| 5.17 | 5.77 | 5.31 |  |  |  | CC1(c2cccc(NC(=O)c3ccc(Cl)cn3)c2)COC(F)(C(F)(F)F)C(N)=N1 (single isomer, unassigned) [Compound 70] |
|  |  |  | 12.3 | 33.9 | 11.7 | COc1ccc(C(=O)Nc2ccc(F)c([C@@]3(C4CC4)N=C(N)CO[C@H]3C(F)(F)F)c2)nc1 [Compound 231] |
|  |  |  | 135 | 1120 | 129 | CC1(c2cccc(-c3cncc(C#N)c3)c2)N=C(N)COC1C(F)(F)F (stereo not drawn) [Compound 171] |
|  |  |  | 79.4 | 832 | 74.1 | C[C@]1(c2cc(NC(=O)c3ccncn3)ccc2F)N=C(N)CO[C@H]1C(F)(F)F [Compound 168] |
| 8.18 |  | 8.21 |  | 25.7 |  | CC1(c2cc(NC(=O)c3ncc(Cl)cc3F)ccc2F)N=C(N)COC1F (single isomer, unassigned) [Compound 133] |
| 7.76 | 6.37 | 7.76 |  |  |  | CC1(c2cccc(NC(=O)c3ccc(Cl)cn3)c2)N=C(N)COC1F (single isomer, unassigned) [Compound 90] |
|  |  |  | 1860 | 1380 | 1550 | CC#Cc1cncc(-c2ccc(F)c([C@@]3(C4CC4)N=C(N)CO[C@H]3F)c2)c1 [Compound 293] |
| 5.55 |  | 5.47 |  | 15800 |  | CC1(c2cccc(-c3cncc(C#N)c3)c2)N=C(N)COC1C(F)(F)F (single isomer, unassigned) [Compound 205] |
| 6.2 | 4.84 | 6.33 |  |  |  | Cc1cncc(-c2cccc(C3(C)COCC(N)=N3)c2)c1 (racemic) [Compound 11] |
|  |  |  | 61.7 | 123 | 58.9 | Cc1cc(Cl)cnc1C(=O)Nc1cccc([C@@]2(C3CC3)N=C(N)CO[C@H]2F)c1 [Compound 298] |
| 6.89 | 5.65 | 6.92 |  |  |  | CC1(c2cc(NC(=O)c3ccc(Cl)cn3)c(F)cc2F)COCC(N)=N1 (racemic) [Compound 60] |
| <5 |  | <5 |  | > 30200 |  | CC1(c2cccc(-c3cncc(C#N)c3)c2)N=C(N)COC1C(F)(F)F (single isomer, unassigned) [Compound 206] |
|  |  |  | 69.2 | 30.2 | 74.1 | N#Cc1ccc(C(=O)Nc2ccc(F)c([C@@]3(C4CC4)N=C(N)CO[C@@]3(F)C(F)(F)F)c2)nc1 [Compound 262] |
| 5.98 | 6.17 | 6.17 |  |  |  | CC#Cc1cncc(-c2ccc(F)c(C3(C4CC4)N=C(N)COC3F)c2)c1 (stereo not drawn) [Compound 292] |
| 6.68 | 5.41 | 6.65 |  |  |  | CC1(c2cc(-c3cncnc3)ccc2F)COCC(N)=N1 (single isomer, unassigned) [Compound 54] |
| 6.34 |  | 6.38 |  | 1290 |  | COc1cnc(C(=O)Nc2cccc(C3(C)N=C(N)COC3(F)C(F)(F)F)c2)cn1 (single isomer, unassigned) [Compound 176] |
| 7.59 | 6.7 | 7.6 |  |  |  | CC1(c2cc(NC(=O)c3cnc(C(F)(F)F)cn3)ccc2F)COCC(N)=N1 (stereo not drawn) [Compound 147] |
| 8.39 | 6.91 | 8.35 |  |  |  | C[C@@]1(c2cc(NC(=O)c3ccc(C(F)(F)F)cn3)ccc2F)COCC(N)=N1 [Compound 38] |

| Structure (SMILES) | Cellular αLisa assay in SKNBE2 cells Abeta 42 pIC50 [1] | Biochemical FRET based assay pIC50 [2] | Cellular αLisa assay in SKNBE2 cells Abetatotal pIC50 [3] | IC50 [1] [nM] | IC50 [2] [nM] | IC50 [3] [nM] |
| --- | --- | --- | --- | --- | --- | --- |
| C[C@H]1OC[C@](C)(c2cccc(NC(=O)c3ccc(Cl)cn3)c2)N=C1N (racemic) [Compound 20, trans-rac-N-[3-(5-Amino-3,6-dimethyl-3,6-dihydro-2H-1,4-oxazin-3-yl)phenyl]-5-chloropyridine-2-carboxamide] | 7.81 | 6.78 | 7.86 |  |  |  |
| Cc1ccc(C(=O)Nc2ccc(F)c(C3(C)COCC(N)=N3)c2)nc1 (stereo not drawn) [Compound 24] | 7.77 | 6.77 | 7.73 |  |  |  |
| C[C@@]1(c2cccc(-c3cncnc3)c2)CO[C@@](C)(C(F)(F)F)C(N)=N1 (racemic) [Compound 161, trans-rac-2,5-dimethyl-5-(3-pyrimidin-5-ylphenyl)-2-(trifluoromethyl)-5,6-dihydro-2H-1,4-oxazin-3-amine] | <5 | 4.53 | <5 |  |  |  |
| COc1cncc(-c2cccc([C@]3(C)CO[C@@H](C)C(N)=N3)c2)c1 (racemic) [Compound 18, trans-rac-5-[3-(5-methoxypyridin-3-yl)phenyl]-2,5-dimethyl-5,6-dihydro-2H-1,4-oxazin-3-amine] | 6.57 | 5.54 | 6.61 |  |  |  |
| C[C@H]1OC[C@@](C)(c2cccc(NC(=O)c3ccc(Cl)cn3)c2)N=C1N (racemic) [Compound 151, cis-rac-N-[3-(5-Amino-3,6-dimethyl-3,6-dihydro-2H-1,4-oxazin-3-yl)phenyl]-5-chloropyridine-2-carboxamide] | 7.8 | 6.4 | 7.83 |  |  |  |
| C[C@]1(c2cccc(-c3cncnc3)c2)CO[C@@](C)(C(F)(F)F)C(N)=N1 (racemic) [Compound 162, cis-rac-2,5-dimethyl-5-(3-pyrimidin-5-ylphenyl)-2-(trifluoromethyl)-5,6-dihydro-2H-1,4-oxazin-3-amine] | 6.1 | 5.21 | 6.14 |  |  |  |
